Consider 15 compounds from patent US20240400554A1, “MONOACYLGLYCEROL LIPASE (MAGL) INHIBITORS FOR THE TREATMENT OF PAIN AND RELATED MEDICAL DISORDERS” (Humanwell Pharmaceutical US, Inc., priority 2023, published 2024).

Bounds are passed on as bounds.

The target in experiment [1] is T1, human recombinant MAGL (monoacylglycerol lipase) (Homo sapiens, UniProt Q99685).
T1 construct: purchased Cayman Chemical Item No. 705192
T1 sequence (Q99685 1-303): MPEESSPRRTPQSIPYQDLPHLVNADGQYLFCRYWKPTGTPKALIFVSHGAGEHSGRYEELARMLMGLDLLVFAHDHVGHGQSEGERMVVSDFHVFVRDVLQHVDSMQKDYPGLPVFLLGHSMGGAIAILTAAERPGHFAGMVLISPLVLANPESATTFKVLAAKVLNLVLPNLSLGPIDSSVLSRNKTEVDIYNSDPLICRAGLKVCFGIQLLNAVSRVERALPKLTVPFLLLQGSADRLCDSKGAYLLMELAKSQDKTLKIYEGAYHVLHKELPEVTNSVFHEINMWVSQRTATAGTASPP
The experiment in a line: In vitro MAGL enzyme inhibition assay (Cayman Monoacylglycerol Lipase Inhibitor Screening Assay, 4-nitrophenylacetate hydrolysis). The experiment is classed as biochemical. To be noted: 4-nitrophenylacetate substrate, 15 min preincubation, absorbance 405-415 nm. Here is the method: Monoacylglycerol Lipase Inhibitor Screening Assay provides a convenient method for screening human MAGL inhibitors.
Dilute 3 ml of MAGL Assay Buffer (10×) concentrate with 27 ml of ultrapure water. This final 1× Assay Buffer (10 mM Tris-HCl, pH 7.2, containing 1 mM EDTA) should be used in the assay and for the dilution of MAGL enzyme, substrate, and MAGL inhibitor. The 1× Assay Buffer is stable for at least six months if stored at −20° C.
The vial contains 0.5 ml of 17 mM ethanolic solution of 4-nitrophenylacetate. Mix 150 μL of this solution with 450 μl of 1× Assay Buffer prior to testing. This is enough substrate to assay 50 wells. Dilute additional substrate if using the entire plate.
This vial contains 100 μl of a solution of human recombinant MAGL (monoacylglycerol lipase). The thawed enzyme should be stored on ice. Dilute 30 μl of enzyme with 570 μl of 1×MAGL Assay Buffer. This is enough enzyme to assay 50 wells. Dilute additional enzyme if using the entire plate. The diluted enzyme is stable for four hours on ice.
This vial contains 20 nmol of inhibitor. Resuspend in 125 μl of DMSO, then add 125 μl of 1× Assay Buffer and vortex to make an 80 μM stock.
1). 100% Initial Activity Wells—add 150 μl of 1× Assay Buffer, 10 μl of MAGL enzyme, and 10 μl of solvent (same solvent used to dissolve the inhibitor) to three wells.
2). Background Wells—add 160 μl of 1× Assay Buffer and 10 μl of solvent (same solvent used to dissolve the inhibitor) to three wells.
3). Inhibitor/Positive Control Wells—add 150 μl of 1× Assay Buffer, 10 μl of MAGL enzyme, and 10 μl of inhibitor* or positive control inhibitor to the inhibitor wells.
4). Mix the contents of the wells by pipetting gently up and down and incubate for 15 minutes at room temperature. The incubation time for different inhibitors may vary and will need to be optimized by the user.
5). Initiate the reactions by adding 10 μl of MAGL Substrate to all the wells being used. Carefully shake the 96-well plate for 10 seconds to mix and cover with the plate cover. Incubate for ten minutes at room temperature.
6). […] (Tecan Spark 10M Multimode Plate Reader)
1). Determine the average absorbance of each sample.
2). Subtract the average absorbance of the background wells from the average absorbance of the 100% initial activity and the inhibitor wells.
3). Determine the percent inhibition or percent activity for each inhibitor using one of the following equations: […]

For experiment [2], the system named is 2% formalin model in SD rats. As to the kind of experiment: Formalin-induced pain model. In kind it is in vivo. To be noted: 3 mg/kg p.o.; for inhibition in vivo at 3 mg/kg: Rattus norvegicus, po, 1 h, movements (lifts and licks) 0-60 min after formalin, read-out: MPE % (Maximum Possible Effect). Here is the method: A diluted formalin solution is injected subcutaneously into the hind paw of rats using a microsyringe, creating a continuous noxious stimulus that induces spontaneous pain behaviors in the animals. The experiment can record the number of lifts and licks of the rat's foot through an autonomous movement analyzer to assess the degree of pain. This experiment uses a 2% formalin model in SD rats and tests the analgesic activity of compounds by oral administration. After injecting 2% formalin, the number of movements (lifts and licks of the injected foot) from 0-60 min after injecting the formalin solution is recorded and analyzed.
The Maximum Possible Effect (MPE %) is calculated as a percentage:
Note: (1) MPE % for each group is calculated with sham group MPE=100% and vehicle group MPE=0% as standards. (2) Movement counts of the sham group are subtracted to exclude the impact of background noise on the experiment. (2) “Sham” represents the average value of the sham group; “Vehicle-Sham” represents the average value of the vehicle group minus the sham group.
Results are presented as mean values with standard error. Data from each group are analyzed and graphed using GraphPad Prism 8 software. Statistical analysis is conducted using one-way ANOVA to determine statistical differences between groups, with t-tests used for comparisons between two groups. A p-value <0.05 is considered statistically significant.

A word on the IC50: it is the concentration needed to halve the response being measured. For `O=C(OC(CO)C(F)(F)F)N1CCC(c2nc3n(c2Br)-c2ncc(F)cc2CC3)CC1` (centres unmarked) [Compound 31, 1,1,1-trifluoro-3-hydroxypropan-2-yl 4-(9-bromo-3-fluoro-5,6-dihydroimidazo[1,2-a][1,8]naphthyridin-8-yl)piperidine-1-carboxylate], in experiment [1], the IC50 came to 32.7 nM.
For `CC(C)c1c(C2CCN(C(=O)OC(C(F)(F)F)C(F)(F)F)CC2)nn2c1CCc1cc(F)cnc1-2` [Compound 21, 1,1,1,3,3,3-hexafluoropropan-2-yl 4-(7-fluoro-3-isopropyl-4,5-dihydropyrazolo[1,5-a][1,8]naphthyridin-2-yl)piperidine-1-carboxylate], in experiment [1], the IC50 was 152 nM.
`O=C(OC(CO)C(F)(F)F)N1CCC(c2cc3n(n2)-c2ccc(F)cc2CC3)CC1` (centres unmarked) [Compound 2, 1,1,1-trifluoro-3-hydroxypropan-2-yl 4-(7-fluoro-4,5-dihydropyrazolo[1,5-a]quinolin-2-yl)piperidine-1-carboxylate]: the half-maximal inhibitory concentration (IC50) in experiment [1] was 16 nM. Further, in experiment [2], the “Experimental Results (analgesic activity in the formalin model)” value (from here on “Experimental Results”) was “effective” and the inhibition in vivo at 3 mg/kg was determined as 45%.
Regarding `O=C(OC(CO)C(F)(F)F)N1CCC(c2nc3n(c2Br)-c2ccc(F)cc2CC3)CC1` (centres unmarked) [Compound 28, 1,1,1-trifluoro-3-hydroxypropan-2-yl 4-(1-bromo-7-fluoro-4,5-dihydroimidazo[1,2-a]quinolin-2-yl)piperidine-1-carboxylate], the IC50 in experiment [1] stood at 25.1 nM.
Turning to `O=C(OC(C(F)(F)F)C(F)(F)F)N1CCC(c2cc3n(n2)-c2ccc(F)cc2CC3)CC1` [Compound 1, 1,1,1,3,3,3-hexafluoropropan-2-yl 4-(7-fluoro-4,5-dihydropyrazolo[1,5-a]quinolin-2-yl)piperidine-1-carboxylate], the IC50 in experiment [1] is less than 0.1 nM. For the same compound, in experiment [2], the “Experimental Results” value is given as “effective” and the inhibition in vivo at 3 mg/kg worked out at 68%.
Take `N#Cc1c(C2CCN(C(=O)OC(C(F)(F)F)C(F)(F)F)CC2)nn2c1CCc1cc(F)cnc1-2` [Compound 18, 1,1,1,3,3,3-hexafluoropropan-2-yl 4-(3-cyano-7-fluoro-4,5-dihydropyrazolo[1,5-a][1,8]naphthyridin-2-yl)piperidine-1-carboxylate]: the IC50 in experiment [1] came out at 78.3 nM.
As for `Cc1c(C2CCN(C(=O)OC(CO)C(F)(F)F)CC2)nn2c1CCc1cc(F)ccc1-2` (centres unmarked) [Compound 6, 1,1,1-trifluoro-3-hydroxypropan-2-yl 4-(7-fluoro-3-methyl-4,5-dihydropyrazolo[1,5-a]quinolin-2-yl)piperidine-1-carboxylate], the IC50 in experiment [1] worked out at 16.7 nM. Also, in experiment [2], the “Experimental Results” value is “effective” and the inhibition in vivo at 3 mg/kg is 44%.
Consider `Cc1c(C2CCN(C(=O)OC(C(F)(F)F)C(F)(F)F)CC2)nn2c1CCc1cc(F)cnc1-2` [Compound 17, 1,1,1,3,3,3-hexafluoropropan-2-yl 4-(7-fluoro-3-methyl-4,5-dihydropyrazolo[1,5-a][1,8]naphthyridin-2-yl)piperidine-1-carboxylate], for which, in experiment [1], the IC50 was found to be 126 nM.
`O=C(OC(C(F)(F)F)C(F)(F)F)N1CCC(c2cc3n(n2)-c2ncc(F)cc2CC3)CC1` [Compound 13, 1,1,1,3,3,3-hexafluoropropan-2-yl 4-(7-fluoro-4,5-dihydropyrazolo[1,5-a][1,8]naphthyridin-2-yl)piperidine-1-carboxylate]: the IC50 in experiment [1] amounted to 9.1 nM. Moreover, in experiment [2], the “Experimental Results” value is given as “effective” and the inhibition in vivo at 3 mg/kg came to 49%.
As to `O=C(OC(C(F)(F)F)C(F)(F)F)N1CCN(c2cc3n(n2)-c2ccc(F)cc2CC3)CC1` [Compound 35, 1,1,1,3,3,3-hexafluoropropan-2-yl 4-(7-fluoro-4,5-dihydropyrazolo[1,5-a]quinolin-2-yl)piperazine-1-carboxylate], the IC50 in experiment [1] was found to be 13.1 nM.
`O=C(OC(CO)C(F)(F)F)N1CCC(c2nn3c(c2C2CC2)CCc2cc(F)ccc2-3)CC1` (centres unmarked) [Compound 40, 1,1,1-trifluoro-3-hydroxypropan-2-yl 4-(3-cyclopropyl-7-fluoro-4,5-dihydropyrazolo[1,5-a]quinolin-2-yl)piperidine-1-carboxylate]: the IC50 in experiment [1] amounted to 18.8 nM. In experiment [2], the “Experimental Results” value is listed as “effective” and the inhibition in vivo at 3 mg/kg was 41%.
On to `CC(C)c1c(C2CCN(C(=O)OC(C(F)(F)F)C(F)(F)F)CC2)nn2c1ccc1cc(F)cnc12` [Compound 34, 1,1,1,3,3,3-hexafluoropropan-2-yl 4-(7-fluoro-3-isopropylpyrazolo[1,5-a][1,8]naphthyridin-2-yl)piperidine-1-carboxylate], for which, in experiment [1], the IC50 was found to be 12.5 nM.
With `O=C(OC(CO)C(F)(F)F)N1CCC(c2cn3c(n2)CCc2cc(F)ccc2-3)CC1` (centres unmarked) [Compound 26, 1,1,1-trifluoro-3-hydroxypropan-2-yl 4-(7-fluoro-4,5-dihydroimidazo[1,2-a]quinolin-2-yl)piperidine-1-carboxylate], the IC50 in experiment [1] stood at 83.4 nM.
`O=C(OC(CO)C(F)(F)F)N1CCC(c2nn3c(c2C(F)(F)F)CCc2cc(F)ccc2-3)CC1` (centres unmarked) [Compound 7, 1,1,1-trifluoro-3-hydroxypropan-2-yl 4-(7-fluoro-3-(trifluoromethyl)-4,5-dihydropyrazolo[1,5-a]quinolin-2-yl)piperidine-1-carboxylate]: the IC50 in experiment [1] is 89.8 nM. Besides, in experiment [2], the “Experimental Results” value is reported as “effective” and the inhibition in vivo at 3 mg/kg amounted to 56%.
For `O=C(OC(CO)C(F)(F)F)N1CCC(c2nn3c(c2Br)CCc2cc(F)ccc2-3)CC1` (centres unmarked) [Compound 5, 1,1,1-trifluoro-3-hydroxypropan-2-yl 4-(3-bromo-7-fluoro-4,5-dihydropyrazolo[1,5-a]quinolin-2-yl)piperidine-1-carboxylate], in that order: 37.1 nM, “effective” and 44%.
